# Test results published in ChEMBL document CHEMBL4251622, “Design, synthesis, and biological evaluation of polo-like kinase 1/eukaryotic elongation factor 2 kinase (PLK1/EEF2K) dual inhibitors for regulating breast cancer cells apoptosis and autophagy” (Eur J Med Chem, 2018).
# The source made the active and inactive calls. The calls are words filed in the database; no cut-off is given here.
# Legend:
# [1] = biological target: NUAK family SNF1-like kinase 2 (Homo sapiens) (UniProt Q9H093); assay: Inhibition of wild-type human partial length SNARK (P22 to A333 residues) expressed in mammalian expression system assessed as residual activity at 1 uM by Kinomescan method relative to control
# [2] = biological target: Casein kinase I isoform gamma-2 (Homo sapiens) (UniProt P78368); assay: Inhibition of wild-type human full length CSNK1G2 (M1 to K415 residues) expressed in bacterial expression system assessed as residual activity at 1 uM by Kinomescan method relative to control
# [3] = biological target: Cyclin-dependent kinase 19 (Homo sapiens) (UniProt Q9BWU1); assay: Inhibition of wild-type human partial length CDK11 (M1 to N360 residues) expressed in bacterial expression system assessed as residual activity at 1 uM by Kinomescan method relative to control
# [4] = biological target: Serine/threonine-protein kinase pim-2 (Homo sapiens) (UniProt Q9P1W9); assay: Inhibition of wild-type human partial length PIM2 (M1 to E291 residues) expressed in bacterial expression system assessed as residual activity at 1 uM by Kinomescan method relative to control
# Serine/threonine-protein kinase pim-2 (Homo sapiens), sequence (Q9P1W9 whole entry, looked up, the tested form may be a part): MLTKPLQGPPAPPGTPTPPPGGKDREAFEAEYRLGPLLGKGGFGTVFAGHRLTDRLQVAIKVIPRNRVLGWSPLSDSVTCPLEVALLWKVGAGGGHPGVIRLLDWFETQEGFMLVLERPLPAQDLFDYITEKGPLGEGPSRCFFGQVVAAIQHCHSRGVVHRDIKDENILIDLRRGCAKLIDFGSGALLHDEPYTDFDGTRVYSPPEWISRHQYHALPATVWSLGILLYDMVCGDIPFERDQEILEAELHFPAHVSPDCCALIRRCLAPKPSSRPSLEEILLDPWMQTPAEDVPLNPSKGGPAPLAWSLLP
# [5] = biological target: Glycogen synthase kinase-3 beta (Homo sapiens) (UniProt P49841); assay: Inhibition of wild-type human full length GSK3B (M1 to T433 residues) expressed in mammalian expression system assessed as residual activity at 1 uM by Kinomescan method relative to control
# Glycogen synthase kinase-3 beta (Homo sapiens), sequence (P49841 whole entry, looked up, the tested form may be a part): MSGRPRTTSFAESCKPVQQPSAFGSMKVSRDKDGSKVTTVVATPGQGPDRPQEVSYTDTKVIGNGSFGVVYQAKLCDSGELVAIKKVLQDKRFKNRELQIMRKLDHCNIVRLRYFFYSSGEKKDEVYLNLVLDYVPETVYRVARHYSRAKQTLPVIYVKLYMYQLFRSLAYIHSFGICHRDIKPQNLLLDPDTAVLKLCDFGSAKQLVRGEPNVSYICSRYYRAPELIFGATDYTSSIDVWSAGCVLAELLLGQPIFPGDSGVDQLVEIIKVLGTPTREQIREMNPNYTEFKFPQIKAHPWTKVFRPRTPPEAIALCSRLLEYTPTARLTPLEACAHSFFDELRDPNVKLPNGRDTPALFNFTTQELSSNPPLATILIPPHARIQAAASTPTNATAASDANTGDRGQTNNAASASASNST
# [6] = biological target: Serine/threonine-protein kinase PLK1 (Homo sapiens, UniProt P53350); assay: Inhibition of wild-type human partial length PLK1 (A33 to F325 residues) expressed in mammalian expression system assessed as residual activity at 1 uM by Kinomescan method relative to control
# SK-BR-3 = assay: Cytotoxicity against human SKBR3 cells after 24 hrs by MTT assay; assay type: functional, cell-based
# [7] = biological target: Rho-associated protein kinase 1 (Homo sapiens) (UniProt Q13464); assay: Inhibition of wild-type human partial length ROCK1 (M1 to R415 residues) expressed in mammalian expression system assessed as residual activity at 1 uM by Kinomescan method relative to control
# [8] = biological target: Phosphatidylinositol 4,5-bisphosphate 3-kinase catalytic subunit gamma isoform (Homo sapiens) (UniProt P48736); assay: Inhibition of wild-type human partial length PIK3CG (S144 to A1102 residues) expressed in mammalian expression system assessed as residual activity at 1 uM by Kinomescan method relative to control
# [9] = biological target: Tyrosine-protein kinase JAK2 (Homo sapiens) (UniProt O60674); assay: Inhibition of wild-type human partial length JAK2 JH1 catalytic domain (A829 to G1132 residues) expressed in mammalian expression system assessed as residual activity at 1 uM by Kinomescan method relative to control
# [10] = biological target: Dual specificity tyrosine-phosphorylation-regulated kinase 1B (Homo sapiens) (UniProt Q9Y463); assay: Inhibition of wild-type human full length DYRK1B (M1 to S629 residues) expressed in bacterial expression system assessed as residual activity at 1 uM by Kinomescan method relative to control
# [11] = biological target: Eukaryotic elongation factor 2 kinase (Homo sapiens, UniProt O00418); assay: Inhibition of GST-tagged EEF2K (unknown origin) using biotinylated EEF2 peptide substrate by HTRF assay
# [12] = biological target: Mitogen-activated protein kinase 11 (Homo sapiens) (UniProt Q15759); assay: Inhibition of wild-type human full length p38-beta (M1 to Q364 residues) expressed in bacterial expression system assessed as residual activity at 1 uM by Kinomescan method relative to control
# Mitogen-activated protein kinase 11 (Homo sapiens), sequence (Q15759 whole entry, the tested form may be a part): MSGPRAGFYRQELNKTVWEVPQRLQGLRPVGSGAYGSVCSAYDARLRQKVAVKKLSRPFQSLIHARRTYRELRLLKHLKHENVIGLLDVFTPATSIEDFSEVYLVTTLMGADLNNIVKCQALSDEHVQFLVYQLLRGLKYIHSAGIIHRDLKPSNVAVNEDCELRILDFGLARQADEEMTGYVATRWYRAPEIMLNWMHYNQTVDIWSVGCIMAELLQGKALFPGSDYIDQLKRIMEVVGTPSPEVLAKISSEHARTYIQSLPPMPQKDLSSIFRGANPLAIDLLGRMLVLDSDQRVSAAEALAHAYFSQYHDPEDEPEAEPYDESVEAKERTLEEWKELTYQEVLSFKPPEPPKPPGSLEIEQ
# [13] = biological target: Bone morphogenetic protein receptor type-2 (Homo sapiens) (UniProt Q13873); assay: Inhibition of wild-type human partial length BMPR2 (R179 to Q526 residues) expressed in mammalian expression system assessed as residual activity at 1 uM by Kinomescan method relative to control
# BT-483 [14] = assay: Upregulation of cytochrome-c protein expression in human BT-483 cells at 5 to 10 uM by Western blot analysis; assay type: functional, cell-based
# [15] = biological target: Death-associated protein kinase 1 (Homo sapiens) (UniProt P53355); assay: Inhibition of wild-type human partial length DAPK1 (M1 to F296 residues) expressed in bacterial expression system assessed as residual activity at 1 uM by Kinomescan method relative to control
# BT-483 [16] = assay: Induction of autophagy in human BT-483 cells assessed as degradation of SQSTM1 protein at 5 to 10 uM by Western blot analysis; assay type: functional, cell-based
# [17] = test system: Tyrosine-protein kinase ABL1 (Homo sapiens), P00519 [E255K]; assay: Inhibition of human phosphorylated ABL1 E255K mutant (S229 to K512 residues) expressed in mammalian expression system assessed as residual activity at 1 uM by Kinomescan method relative to control
# [18] = biological target: Platelet-derived growth factor receptor alpha (Homo sapiens) (UniProt P16234); assay: Inhibition of wild-type human partial length PDGFRA (V575 to D1002 residues) expressed in mammalian expression system assessed as residual activity at 1 uM by Kinomescan method relative to control
# Platelet-derived growth factor receptor alpha (Homo sapiens), sequence (P16234 whole entry, the tested form may be a part): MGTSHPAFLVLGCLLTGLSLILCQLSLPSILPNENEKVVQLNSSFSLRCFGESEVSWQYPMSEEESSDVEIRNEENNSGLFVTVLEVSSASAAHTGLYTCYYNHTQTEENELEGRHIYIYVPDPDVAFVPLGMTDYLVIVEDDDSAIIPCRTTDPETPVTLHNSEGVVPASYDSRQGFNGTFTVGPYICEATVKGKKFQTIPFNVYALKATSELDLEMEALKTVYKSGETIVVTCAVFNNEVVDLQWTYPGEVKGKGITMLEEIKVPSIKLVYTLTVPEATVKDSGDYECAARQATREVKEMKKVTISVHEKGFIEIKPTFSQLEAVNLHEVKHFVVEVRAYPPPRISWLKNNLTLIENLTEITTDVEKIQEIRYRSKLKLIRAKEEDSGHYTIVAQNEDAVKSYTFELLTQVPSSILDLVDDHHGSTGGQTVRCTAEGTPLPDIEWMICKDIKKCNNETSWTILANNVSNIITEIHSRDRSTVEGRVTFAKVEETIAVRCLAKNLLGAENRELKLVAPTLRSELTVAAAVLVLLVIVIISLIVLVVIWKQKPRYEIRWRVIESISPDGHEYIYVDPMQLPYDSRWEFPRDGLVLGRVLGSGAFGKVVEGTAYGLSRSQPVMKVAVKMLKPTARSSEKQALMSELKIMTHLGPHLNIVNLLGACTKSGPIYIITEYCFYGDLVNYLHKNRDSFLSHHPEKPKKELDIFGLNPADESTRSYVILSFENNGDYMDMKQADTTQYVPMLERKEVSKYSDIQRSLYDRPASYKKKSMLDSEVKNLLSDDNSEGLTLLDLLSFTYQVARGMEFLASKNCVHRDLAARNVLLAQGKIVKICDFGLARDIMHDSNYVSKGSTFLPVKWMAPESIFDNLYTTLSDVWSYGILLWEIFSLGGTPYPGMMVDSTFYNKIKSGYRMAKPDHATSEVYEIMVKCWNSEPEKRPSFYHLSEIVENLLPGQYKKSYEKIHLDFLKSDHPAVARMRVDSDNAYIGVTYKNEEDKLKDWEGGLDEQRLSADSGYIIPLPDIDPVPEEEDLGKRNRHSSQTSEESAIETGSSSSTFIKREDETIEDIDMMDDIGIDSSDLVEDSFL
# BT-483 [19] = assay: Cell cycle arrest in human BT-483 cells assessed as accumulation at sub-G1 phase at 5 to 10 uM after 24 to 72 hrs; assay type: functional, cell-based
# [20] = biological target: High affinity nerve growth factor receptor (Homo sapiens) (UniProt P04629); assay: Inhibition of wild-type human partial length TRKA (G475 to G790 residues) expressed in mammalian expression system assessed as residual activity at 1 uM by Kinomescan method relative to control
# High affinity nerve growth factor receptor (Homo sapiens), sequence (P04629 33-796 limits assumed): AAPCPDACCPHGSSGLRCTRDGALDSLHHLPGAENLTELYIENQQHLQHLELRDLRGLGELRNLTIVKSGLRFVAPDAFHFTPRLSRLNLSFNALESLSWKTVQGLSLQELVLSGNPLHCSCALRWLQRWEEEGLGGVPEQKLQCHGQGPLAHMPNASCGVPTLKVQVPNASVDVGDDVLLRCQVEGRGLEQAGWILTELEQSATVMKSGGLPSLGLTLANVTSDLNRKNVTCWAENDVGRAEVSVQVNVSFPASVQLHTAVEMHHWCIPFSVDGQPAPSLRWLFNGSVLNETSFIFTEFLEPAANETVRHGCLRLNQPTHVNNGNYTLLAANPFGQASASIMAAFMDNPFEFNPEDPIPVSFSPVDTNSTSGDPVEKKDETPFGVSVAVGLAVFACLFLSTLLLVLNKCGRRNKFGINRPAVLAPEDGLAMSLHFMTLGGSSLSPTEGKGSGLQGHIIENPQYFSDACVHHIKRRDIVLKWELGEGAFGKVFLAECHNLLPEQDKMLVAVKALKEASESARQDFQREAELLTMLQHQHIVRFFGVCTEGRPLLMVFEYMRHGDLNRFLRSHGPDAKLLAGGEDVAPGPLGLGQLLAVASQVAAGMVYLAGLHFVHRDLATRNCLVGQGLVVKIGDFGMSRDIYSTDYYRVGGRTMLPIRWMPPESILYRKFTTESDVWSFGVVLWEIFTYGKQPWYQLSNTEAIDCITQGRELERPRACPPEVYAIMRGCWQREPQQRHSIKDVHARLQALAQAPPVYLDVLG
# [21] = biological target: ALK tyrosine kinase receptor (Homo sapiens) (UniProt Q9UM73); assay: Inhibition of wild-type human partial length ALK (I1088 to E1409 residues) expressed in mammalian expression system assessed as residual activity at 1 uM by Kinomescan method relative to control
# ALK tyrosine kinase receptor (Homo sapiens), sequence (Q9UM73 19-1620 limits assumed): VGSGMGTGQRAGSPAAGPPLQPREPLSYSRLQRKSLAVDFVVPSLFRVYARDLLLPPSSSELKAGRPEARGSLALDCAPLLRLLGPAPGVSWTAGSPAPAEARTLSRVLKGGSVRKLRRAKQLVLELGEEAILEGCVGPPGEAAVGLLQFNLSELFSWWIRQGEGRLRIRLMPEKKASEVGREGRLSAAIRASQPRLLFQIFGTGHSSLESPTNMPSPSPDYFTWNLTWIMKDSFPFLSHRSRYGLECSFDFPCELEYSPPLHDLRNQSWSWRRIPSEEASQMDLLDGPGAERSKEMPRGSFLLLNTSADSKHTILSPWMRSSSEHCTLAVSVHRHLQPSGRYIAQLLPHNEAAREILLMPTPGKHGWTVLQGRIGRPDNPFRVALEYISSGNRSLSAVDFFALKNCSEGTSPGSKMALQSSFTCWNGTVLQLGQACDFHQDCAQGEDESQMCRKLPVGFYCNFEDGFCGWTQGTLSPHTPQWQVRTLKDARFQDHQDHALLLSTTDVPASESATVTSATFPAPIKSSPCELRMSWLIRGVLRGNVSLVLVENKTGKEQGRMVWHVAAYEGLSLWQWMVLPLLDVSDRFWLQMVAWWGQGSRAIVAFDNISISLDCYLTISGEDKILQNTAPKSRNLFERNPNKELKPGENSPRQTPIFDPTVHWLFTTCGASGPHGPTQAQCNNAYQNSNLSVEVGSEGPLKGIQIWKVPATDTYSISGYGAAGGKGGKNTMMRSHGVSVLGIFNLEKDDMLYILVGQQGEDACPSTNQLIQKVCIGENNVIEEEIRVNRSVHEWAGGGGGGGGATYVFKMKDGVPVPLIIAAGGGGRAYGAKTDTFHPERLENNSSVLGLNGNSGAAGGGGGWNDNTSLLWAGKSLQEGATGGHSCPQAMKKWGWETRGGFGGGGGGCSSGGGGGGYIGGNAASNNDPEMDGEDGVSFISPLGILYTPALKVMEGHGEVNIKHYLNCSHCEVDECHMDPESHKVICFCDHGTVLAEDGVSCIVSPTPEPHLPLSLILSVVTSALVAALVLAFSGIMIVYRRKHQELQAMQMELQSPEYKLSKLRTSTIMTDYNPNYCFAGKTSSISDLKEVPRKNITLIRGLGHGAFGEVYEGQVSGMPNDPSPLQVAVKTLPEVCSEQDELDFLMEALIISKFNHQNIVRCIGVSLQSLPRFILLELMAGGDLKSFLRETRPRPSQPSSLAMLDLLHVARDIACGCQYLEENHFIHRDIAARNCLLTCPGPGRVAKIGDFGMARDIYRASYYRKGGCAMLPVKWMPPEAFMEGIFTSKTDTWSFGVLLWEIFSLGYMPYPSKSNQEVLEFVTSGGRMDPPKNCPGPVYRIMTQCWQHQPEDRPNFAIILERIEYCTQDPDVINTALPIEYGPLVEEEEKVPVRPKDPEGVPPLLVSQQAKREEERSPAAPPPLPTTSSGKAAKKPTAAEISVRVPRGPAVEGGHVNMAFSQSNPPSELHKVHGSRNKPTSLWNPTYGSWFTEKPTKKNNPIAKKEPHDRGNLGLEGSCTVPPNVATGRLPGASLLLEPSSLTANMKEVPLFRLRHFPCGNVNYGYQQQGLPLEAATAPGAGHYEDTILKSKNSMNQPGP
# BT-483 [22] = assay: Induction of apoptosis in human BT-483 cells assessed as necrotic cells at 10 uM by Annexin V-FITC/propidium iodide staining based flow cytometry (reference value: 0.18%); assay type: functional
# [23] = biological target: Epidermal growth factor receptor (Homo sapiens) (UniProt P00533); assay: Inhibition of wild-type human partial length EGFR (R669 to V1011 residues) expressed in bacterial expression system assessed as residual activity at 1 uM by Kinomescan method relative to control
# [24] = biological target: MAP kinase-interacting serine/threonine-protein kinase 2 (Homo sapiens) (UniProt Q9HBH9); assay: Inhibition of wild-type human partial length MKNK2 (G63 to S388 residues) expressed in mammalian expression system assessed as residual activity at 1 uM by Kinomescan method relative to control
# MAP kinase-interacting serine/threonine-protein kinase 2 (Homo sapiens), sequence (Q9HBH9 whole entry, looked up, the tested form may be a part): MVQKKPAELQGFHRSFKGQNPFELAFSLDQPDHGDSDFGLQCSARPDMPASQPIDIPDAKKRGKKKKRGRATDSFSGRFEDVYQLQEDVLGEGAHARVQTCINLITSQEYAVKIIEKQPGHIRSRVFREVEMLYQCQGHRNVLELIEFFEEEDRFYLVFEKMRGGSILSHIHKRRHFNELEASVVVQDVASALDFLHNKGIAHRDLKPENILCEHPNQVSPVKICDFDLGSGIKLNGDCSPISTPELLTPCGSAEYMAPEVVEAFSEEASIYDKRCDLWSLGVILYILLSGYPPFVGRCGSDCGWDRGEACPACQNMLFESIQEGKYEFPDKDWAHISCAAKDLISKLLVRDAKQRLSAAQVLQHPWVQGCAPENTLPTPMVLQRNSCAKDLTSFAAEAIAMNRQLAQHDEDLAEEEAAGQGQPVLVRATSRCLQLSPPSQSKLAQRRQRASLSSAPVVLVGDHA
# [25] = biological target: Mitogen-activated protein kinase 3 (Homo sapiens) (UniProt P27361); assay: Inhibition of wild-type human full length ERK1 (M1 to P379 residues) expressed in bacterial expression system assessed as residual activity at 1 uM by Kinomescan method relative to control
# BT-483 [26] = assay: Induction of autophagy in human BT-483 cells transfected with GFP-fused LC3 assessed as aggregation of GFP-LC3 punctures after 6 hrs by DAPI staining based assay; assay type: functional, cell-based
# BT-483 [27] = assay: Induction of apoptosis in human BT-483 cells assessed as apoptotic nuclear fragment formation at 5 uM after 24 hrs by fluorescence microscopic method; assay type: functional, cell-based
structure (smiles),measurement,setting,value
CCNc1cc(-c2ccc(NC(=O)Nc3cccc(Cl)c3)cc2C(F)(F)F)ccn1,Activity,[1],69%
same,Activity,[2],90%
same,Activity,[3],89%
same,Activity,[4],88%
same,Activity,[5],80%
same,Activity,[6],7%
same,Activity,SK-BR-3,Active
same,Activity,[7],70%
same,Activity,[8],74%
same,Activity,[9],86%
same,Activity,[10],93%
same,IC50,[11],762 nM
same,Activity,[12],60%
same,Activity,[13],94%
same,Activity,BT-483 [14],Active
same,Activity,[15],93%
same,Activity,BT-483 [16],Active
same,Activity,[17],82%
same,Activity,[18],79%
same,Activity,BT-483 [19],Active
same,Activity,[20],84%
same,Activity,[21],88%
same,Activity,BT-483 [22],0.48%
same,Activity,[23],90%
same,Activity,[24],73%
same,Activity,[25],67%
same,Activity,BT-483 [26],Active
same,Activity,BT-483 [27],Active
